Broadly, the Kd is the constant that tells how readily two partners part at equilibrium.

For one assay, the target named is W156F DaCld (Dechloromonas aromatica, UniProt Q47CX0, W190F). The assay is described as follows: Equilibrium binding of heme ligands.
The target of another assay is DaCld(W227F) (Dechloromonas aromatica, UniProt Q47CX0, W261F). The assay is described as follows: Equilibrium binding of heme ligands.
The target of the next assay is WT DaCld. The conditions noted are these: cited from earlier work.

Molecules are shown by their SMILES. Like-named read-outs stand apart in the source and are kept apart here.

DaCld(W227F), sequence (Q47CX0 32-282 W261F): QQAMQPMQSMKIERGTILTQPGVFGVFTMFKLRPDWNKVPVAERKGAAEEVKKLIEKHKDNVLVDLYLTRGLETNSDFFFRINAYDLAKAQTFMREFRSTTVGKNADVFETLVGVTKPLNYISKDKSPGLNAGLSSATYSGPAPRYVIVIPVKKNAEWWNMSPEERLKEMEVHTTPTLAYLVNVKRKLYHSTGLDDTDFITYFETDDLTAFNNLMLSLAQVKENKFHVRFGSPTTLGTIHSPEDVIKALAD
W156F DaCld, sequence (Q47CX0 32-282 W190F): as the sequence (Q47CX0 32-282 W261F) above, with W159F, F230W counted along it

For `c1c[nH]cn1` [Imidazole], the equilibrium dissociation constant (Kd) is 26.6 ± 3.5 µM on W156F DaCld; 17.5 ± 1.5 µM at DaCld(W227F); 9.6 ± 0.3 µM at WT DaCld (pH 7, 100 mM phosphate, 25 °C, ref [16]).

In the case of `[N-]=[N+]=[N-]` [N3^-, azide], the Kd on W156F DaCld (pH 7) is 34.5 ± 3.1 µM; on DaCld(W227F) (pH 7), 7 ± 0.3 µM; at WT DaCld (pH 7) it was 8.3 ± 0.1 µM.

On to `F` [F^-, fluoride], for which the Kd at DaCld(W227F) is 3800 ± 900 µM; at WT DaCld (pH 7), 15000 ± 1000 µM.

The record behind these values is article PMC3740200 (Dalton transactions (Cambridge, England : 2003), 2012).
